According to article PMC12525728, “Safety, Pharmacokinetics, Translational and Molecular Mechanistic Insights on the Prostate Cancer Recurrence Suppressor Pseurotin A” (Molecules, 2025):
Like-named read-outs stand apart in the source and are kept apart here.

Tests used:
Format in all cases: in vivo
[1] = Pharmacokinetics study in Swiss albino mice; conditions: for C0 / AUC(0-t): iv, 50 mg/kg
Procedure: Five µL of the IS ([…]) and 20 µL of 50, 40, 30, 20, 10, 8, and 4 µg/mL PsA standard solutions were combined with 15 µL freshly extracted blank mouse plasma. 300 µL of a 70% EtOAc/30% isopropanol mixture was added and vortexed for 30 s. Following centrifugation at 15,000× g for 10 min, the supernatant was transferred to a 2 mL Eppendorf tube for nitrogen evaporation. The residues were reconstituted in 25 µL HPLC-grade MeOH before being subjected to 30 s sonication followed by centrifugation at 15,000× g for 10 min. Afterwards, the entire sample was immediately injected for RP-HPLC analysis. The mouse plasma samples used in the PK study were subjected to the same extraction method, minus the addition of the PsA standard solutions. After weighing, each mouse organ was reconstituted in 500 µL PBS, then homogenized using the MISONIX Sonicator (Division of QSonica LLC, Newtown, CT, USA). Samples were centrifuged at 15,000× g for 10 min, and the supernatant was collected and transferred to a 2 mL Eppendorf. About 5 µL of IS (25 µL/mL) and 300 µL of a 70% EtOAc/30% isopropanol mixture were added to 100 µL of supernatant and vortexed for 30 s. Following centrifugation at 15,000× g for 10 min, the supernatant was transferred to a 2 mL Eppendorf tube and evaporated under N2. The remains were reconstituted in 40 µL HPLC-grade methanol before being subjected to 30 s sonication followed by centrifugation at 15,000× g for 10 min.
The mean plasma concentration-time curve was plotted using GraphPad Prism software version 8.0.2 (La Jolla, CA, USA). PK parameters were obtained through non-compartmental analysis following intravenous bolus input using PK Solver 2.0 [52].
For the PKs study, twelve male and twelve female healthy Swiss albino mice were randomly selected and placed in 3 groups (n = 4/sex/group). The mice received free access to drinking water and pelleted regular rodent chow (5% fat content, Cat# 7012, Envigo/Teklad, Madison, WI, USA) until the day before experimentation, after which they were fasted for 8 h and allowed only free access to drinking water. Mice were administered PsA formulated in sterile PBS-DMSO (925:75) + 0.2% Tween 80 at a volume not exceeding 100 µL intravenously through recto-orbital injection. Each animal was anaesthetized using Isoflurane (Piramal Critical Care Inc., Bethlehem, PA, USA) for 1–2 min before injection. Disposable sterilized syringes (Becton, Dickinson and Company, Franklin Lakes, NJ, USA) were used for blood collection as well as administration of PsA at a dose of 50 mg/kg and volume, adjusted to the mouse body weight, no greater than 100 µL for animal safety considerations. Blood samples of around 50–70 µL were collected through the tail vein in 600 µL Eppendorf tubes at time points 0.25, 0.75, and 1.5 h for groups 1 and 4, 0.083, 0.5, and 1 h for groups 2 and 5, in addition to 2 and 4 h for groups 3 and 6 following intravenous injection and subjected to immediate centrifugation. From the plasma, 15 µL was transferred into clean 600 µL Eppendorf tubes and immediately subjected to the extraction method listed above and analyzed using HPLC.

[2] = Pharmacokinetics study in Swiss albino mice; conditions: following oral dosing
[3] = system: HFD-fed Swiss albino mice; assay: Systemic cholesterol monitoring assay in HFD-fed mice, 90-day oral dosing; conditions: 90 days; for reduction of HFD-induced hypercholesterolemia relative to the control: female; for plasma cholesterol relative reduction versus the control group: male
Procedure: Plasmatic cholesterol concentrations in mice were determined using a total cholesterol kit (EnzyChrom^TM Cholesterol Assay Kit ECCH-100 BioAssay Systems, Hayward, CA, USA), adhering to the manufacturer’s instructions. Colorimetric quantitation was measured at 340 nm using a Synergy 2 microplate reader (BioTek Instruments Inc., Winooski, VT, USA). Blood was collected through tail vein extraction on the day before treatment, day 35, and day 90. Blood was quickly collected into green-topped Lithium Heparin 400 µL blood collection tubes (BD Microtainer REF# 365965 Becton, Dickinson and Company, Franklin Lakes, NJ, USA), centrifuged at 13,000× g for 10 min, and the upper layer of plasma was transferred to 1.5 mL Eppendorf tubes (Thermo Fisher Scientific, Waltham, MA, USA) and stored at −20 °C until analysis.
For the 90-day daily oral dosing sub-chronic toxicity study, twenty male and twenty female healthy 8-week-old Swiss albino mice were randomly selected and randomized to […] (n = 5/sex/group). Mice received free access to purified drinking water and high-fat diet (HFD) pelleted rodent chow (11.4% total fat, no. 7004, Envigo/Teklad, Madison, WI, USA) until the day before sacrifice, at which time they were fasted for 8 h and allowed only free access to drinking water. Daily doses of PsA (10, 40, 80 mg/kg body weight) were administered to the mice formulated in <5% DMSO (Mediatech Inc., Manassas, VA, USA) and <0.2% Tween 80 (Croda Inc., Princeton, NJ, USA) at a volume not exceeding 1% of body weight by metal oral gavage (2 mm diameter with stainless steel bite protector, 18-gauge, 3.81 cm long). […] The mice were observed weekly until the completion of the study. The body weights of the mice were measured in grams using a Scout^TM Pro (Ohaus Corp., Pine Brook, NJ, USA) on day 0, 4, 8, 11, 14, 21, 28, 35, 42, 49, 56, 63, 70, 77, 83, and 90 after initial treatment. On day 90, all mice were anesthetized using isoflurane (USP-vaporizer method, Matrix VIP-3000, Covetrus, Dublin, OH, USA, exposure of animals in an anesthesia chamber at 3% isoflurane vaporization rate. Exposure time 2 min). Mice were then euthanized by cervical dislocation according to the 2020 AVMA Guidelines on Euthanasia and dissected. Mice organs (brain, liver, kidney, heart, lungs, spleen) were excised and weighed for histopathological examination. The organs were stored in 10% neutral buffered formalin (Avantor Science Central, Allentown, PA, USA) for 24 h and then transferred to 70% ethanol (AAPER ALCOHOL, Shelbyville, KY, USA). This study was performed following the OECD guideline 408 for the testing of chemicals.

In the case of `CC/C=C\[C@H](O)[C@H](O)C1=C(C)C(=O)[C@]2(O1)C(=O)N[C@@](OC)(C(=O)c1ccccc1)[C@@H]2O` [PsA, pseurotin A], the “plasma detectability over time by HPLC” value ([1]; IV 50 mg/kg) is reported as “undetectable by the HPLC method after 2 h”, the C0 ([1]; both sexes, Swiss albino, mouse, plasma, IV 50 mg/kg, read-out: initial concentration range) is reported as 24600 to 34200 ng/mL and the AUC(0-t) ([1]; both sexes, Swiss albino, mouse, plasma, single IV 50 mg/kg, 8 h fasting, non-compartmental, mean, read-out: AUC0–t) is reported as 19100 ng·h/mL. For the same molecule, the AUC(0-t) ([1]; both sexes, Swiss albino, mouse, plasma, single IV 50 mg/kg, 8 h fasting, non-compartmental, mean, read-out: AUCt–∞) was 20900 ng·h/mL, the C0 ([1]; both sexes, Swiss albino, mouse, plasma, single IV 50 mg/kg, 8 h fasting, non-compartmental, mean, read-out: C0, initial plasma concentration) was 37300 ng/mL and the Vd ([1]; both sexes, Swiss albino, mouse, plasma, IV 50 mg/kg, read-out: average volume of distribution (Vd)) was 1.83 L/kg. For the same molecule, the MRT ([1]; both sexes, Swiss albino, mouse, plasma, single IV 50 mg/kg, 8 h fasting, non-compartmental, mean, read-out: MRT, mean residence time) was 44.4 min, the half-life ([1]; both sexes, Swiss albino, mouse, plasma, single IV 50 mg/kg, 8 h fasting, non-compartmental, mean, read-out: T1/2, elimination half-life (converted)) was 31.8 min and the Vd ([1]; both sexes, Swiss albino, mouse, plasma, single IV 50 mg/kg, 8 h fasting, non-compartmental, mean, read-out: Vd, volume of distribution) was 1.83 L. For the same molecule, the “AUMC, area under the moment curve” value ([1]; single IV 50 mg/kg, 8 h fasting, non-compartmental, mean) was 15410 ng·h/mL, the “plasma detectability by validated HPLC method” value [2] was “not detectable in the plasma” and the “reduction of HFD-induced hypercholesterolemia relative to the control” value ([3]; 10 mg/kg daily oral) was −80.7%. For the same molecule, the “reduction of HFD-induced hypercholesterolemia relative to the control” value ([3]; 40 mg/kg daily oral) was −92.9%, the “reduction of HFD-induced hypercholesterolemia relative to the control” value ([3]; 80 mg/kg daily oral) was −85.5% and the “plasma cholesterol relative reduction versus the control group” value ([3]; 10 mg/kg daily oral) was −96.1%. The “plasma cholesterol relative reduction versus the control group” value ([3]; 40 mg/kg daily oral) was −107.3% and the “plasma cholesterol relative reduction versus the control group” value ([3]; 80 mg/kg daily oral) was −116.7%.
